From the supplement of paper PMC10307832

Key:
Assay in all cases: relative viability (nuclei count vs DMSO), 5 days (fraction); higher = more cells survive
[1] = compound: C1CNCCC1C2=CC(=NN2)C3=CC=NC=C3 + COc1cccc2cc(-c3nc([C@H]4CC[C@H](C(=O)O)CC4)n4ncnc(N)c34)[nH]c12 [OSI-027] (partner 0.5 µM)
Summary of the method: (§1)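 Each reported value is a median over duplicate plates. It expresses relative viability: treated-well nuclei count divided by vehicle-well nuclei count. Lung cancer cell lines in 1536-well plates were dosed by pin tool a day after seeding, alone with one drug or with a fixed anchor-drug dose plus five library-drug doses (not always all listed) in √10 steps, and nuclei were counted after 5 days.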

[2] = compound: C1CNCCC1C2=CC(=NN2)C3=CC=NC=C3 + Nc1nc2[nH]cc(CCc3ccc(C(=O)N[C@@H](CCC(=O)O)C(=O)O)cc3)c2c(=O)[nH]1 [Pemetrexed] (partner 0.2 µM)
Summary of the method: as §1

[3] = compound: C1CNCCC1C2=CC(=NN2)C3=CC=NC=C3 + O=C(CCCCCCC(=O)Nc1ccccc1)NO [Vorinostat] (partner 1 µM)
Summary of the method: as §1

[4] = compound: C[C@@H](N)c1ccc(C(=O)Nc2ccnc3[nH]ccc23)cc1 + CS(=O)(=O)N1CCN(Cc2cc3nc(-c4cccc5[nH]ncc45)nc(N4CCOCC4)c3s2)CC1 [Pictilisib] (partner 1 µM)
Summary of the method: as §1

Cell Line | relative viability ([1]; first compound 0.08 µM) | relative viability ([1]; first compound 0.8 µM) | relative viability ([1]; first compound 2.53 µM) | relative viability ([1]; first compound 8 µM) | relative viability ([2]; first compound 0.08 µM) | relative viability ([2]; first compound 0.8 µM) | relative viability ([2]; first compound 2.53 µM) | relative viability ([2]; first compound 8 µM) | relative viability ([3]; first compound 0.08 µM) | relative viability ([3]; first compound 0.8 µM) | relative viability ([3]; first compound 2.53 µM) | relative viability ([3]; first compound 8 µM) | relative viability ([4]; first compound 0.04 µM) | relative viability ([4]; first compound 0.1265 µM) | relative viability ([4]; first compound 0.4 µM) | relative viability ([4]; first compound 1.265 µM) | relative viability ([4]; first compound 4 µM)
201T | 0.72 | 0.718 | 0.832 | 0.842 | 0.349 | 0.384 | 0.332 | 0.352 | 0.954 | 0.955 | 1.02 | 0.949 | 0.702 | 0.636 | 0.685 | 0.519 | 0.788
A549 |  |  |  |  |  |  |  |  |  |  |  |  | 0.596 | 0.526 | 0.597 | 0.525 | 0.428
A-427 | 0.463 | 0.477 | 0.473 | 0.499 | 0.967 | 0.996 | 0.982 | 0.94 | 0.842 | 0.982 | 0.891 | 0.762 | 0.658 | 0.766 | 0.66 |  | 0.793
ABC-1 | 0.556 | 0.484 | 0.65 | 0.575 |  |  |  |  | 1.2 | 1.01 | 1.1 | 1.14 | 0.804 | 0.832 | 1.07 | 0.484 | 0.769
BEN | 0.303 | 0.295 | 0.233 | 0.33 | 0.788 | 0.638 | 0.793 | 0.933 | 0.489 | 0.611 | 0.635 | 0.57 | 0.537 | 0.454 | 0.611 | 0.617 | 0.44
CAL-12T | 0.823 | 0.866 | 0.84 | 0.839 | 1.22 | 1.32 | 1.21 | 1.09 | 0.693 | 0.932 | 0.964 | 0.981 | 0.544 | 0.76 | 0.66 |  | 0.437
COR-L23 | 0.691 | 1.01 | 0.761 | 0.73 | 0.192 | 0.212 | 0.193 | 0.192 | 0.455 | 0.56 | 0.631 | 0.447 | 0.621 | 0.867 | 0.799 | 0.591 | 0.562
COR-L 105 | 0.694 | 0.678 | 0.925 | 0.664 | 1.19 | 1.19 | 1.12 | 1.06 | 0.805 | 0.916 | 1.07 | 0.964 | 0.435 | 0.297 | 0.399 | 0.255 | 0.309
Calu-6 |  |  |  |  |  |  |  |  |  |  |  |  | 0.952 | 0.988 | 0.854 | 0.928 | 0.75
ChaGo-K-1 | 0.559 | 0.557 | 0.589 | 0.575 | 0.262 | 0.261 | 0.269 | 0.298 | 0.731 | 0.806 | 0.764 | 0.765 | 0.777 | 0.937 | 0.988 |  | 0.696
EBC-1 |  |  |  |  |  |  |  |  |  |  |  |  | 0.38 | 0.408 | 0.347 | 0.473 | 0.593
EKVX | 0.646 | 0.72 | 0.734 | 0.718 | 0.423 |  | 0.427 | 0.404 | 0.78 | 0.82 | 0.861 | 0.737 | 0.582 | 0.489 | 0.532 | 0.467 | 0.443
EMC-BAC-2 | 0.379 | 0.368 | 0.421 | 0.368 | 0.464 | 0.448 | 0.435 | 0.439 |  | 0.475 | 0.498 | 0.436 | 0.491 | 0.575 | 0.531 | 0.476 | 0.411
EPLC-272H | 0.279 | 0.348 | 0.318 | 0.292 | 0.298 | 0.317 | 0.38 | 0.412 | 0.618 | 0.501 | 0.452 | 0.468 | 0.387 | 0.34 | 0.339 |  | 0.297
H3255 | 0.52 | 0.629 | 0.577 | 0.759 | 0.578 | 0.629 | 0.638 | 0.623 | 0.95 |  | 0.995 | 0.937 | 0.496 | 0.576 | 0.608 | 0.581 | 0.515
HARA | 0.552 | 0.524 | 0.627 | 0.404 | 0.238 | 0.236 | 0.228 | 0.159 | 0.669 | 0.62 | 0.527 | 0.481 | 0.634 | 0.517 | 0.432 | 0.475 | 0.292
HCC-15 | 0.677 | 0.682 | 0.694 | 0.693 | 0.221 | 0.229 | 0.234 | 0.211 | 0.844 | 0.871 | 0.845 | 0.877 | 0.821 | 0.705 | 0.796 |  | 0.731
HCC-44 | 0.47 | 0.71 | 0.627 | 0.787 | 0.678 | 0.659 | 0.64 | 0.613 | 1.11 | 1.2 | 0.998 | 1.11 | 0.789 | 0.508 | 0.656 | 0.571 | 0.482
HCC-78 | 0.344 | 0.359 | 0.354 | 0.383 | 0.901 |  | 0.925 | 0.885 | 0.404 |  | 0.441 | 0.475 | 0.509 | 0.318 | 0.297 | 0.137 | 0.254
HCC-366 | 1.12 | 1.01 | 1.05 | 0.878 | 0.212 | 0.193 | 0.146 | 0.173 | 0.444 | 0.36 | 0.426 | 0.372 | 0.113 | 0.137 | 0.163 | 0.132 | 0.0875
HCC-827 | 0.666 | 0.673 | 0.806 | 0.782 | 0.222 | 0.238 | 0.132 | 0.262 | 0.698 | 0.861 | 1.03 | 0.912 | 1.22 | 1.27 | 1.12 | 0.978 | 0.783
HOP-62 | 0.816 | 0.912 | 0.831 | 0.773 | 0.312 | 0.336 | 0.272 | 0.335 | 0.606 | 0.635 | 0.733 | 0.6 | 0.539 | 0.413 | 0.827 | 0.0717 | 0.887
